Laboratory results published in patent US5780441A, “Sphingoglycolipid compounds and therapeutic uses thereof” (Kirin Beer Kabushiki Kaisha, priority 1993, dated 1998).

Legend:
[1] = system: mouse bone marrow cells; experiment: In vitro mouse bone marrow cell-proliferation-promoting effect (3H-TdR uptake); type: cell-based, mouse (BDF1 female); details: 4 days, 5760 min
Procedure: In vitro mouse bone marrow cell-proliferation-promoting effect of the present compound
Experiment was performed with BDF1 female mice (6 weeks old) purchased from NIPPON SLC K.K. Bone marrow cells were removed from the femoral bone of mice by the conventional manner, floated on 10% FCS RPMI 1640, layered over Lympholite M, and centrifuged to give a monocyte fraction. 1×10^6 cells/ml of the monocyte fraction was suspended in 10% FCS RPMI 1640. The cell suspension (100 μl/well) and a vehicle or sample (10 μl/well) which was prepared so as to have a final level shown in Table 2 were added into a wells of round-bottomed 96 well plate, and cultured under the condition of 5% CO2 at 37° C. for 4 days. 0.5 μCi/well of ^3 H-thymidine (^3 H-TdR) was added. After 6 hours, the cells were harvested, and the amount of ^3 H-TdR uptaken into nucleus was measured by a liquid scintillation counter. The ratio of the uptake of ^3 H-TdR in the sample group to that in the vehicle group was calculated and used as the activation rate for promoting in vitro mouse bone marrow cell growth.

[2] = system: P388 mouse leukemia cells; experiment: Life-span-prolonging (anti-tumor) effect on mice subcutaneously inoculated with P388 mouse leukemia cells; type: in vivo, mouse (CDF1 female); details: 0.1 mg/kg i.v. on days 1, 5 and 9; for Survival days ave. ± s. d.: all marked ** (p < 0.01); for T/C (%): survival vs vehicle
Procedure: i) Anti-tumor effect of the compound of the present invention on mice subcutaneously inoculated with P388 mouse leukemia cells.
Experiment was performed with CDF1 female mice (6 weeks) purchased from NIPPON SLC K.K., which were divided into groups consisting of 5 animals. […]. In this connection, lentinan and picibanil were administered intravenously on days 1, 3, 5, 7 and 9 after implantation, and sizofilan was administered subcutaneously on days 1 through 9. Statistical analysis was performed according to the Mann-Whiteney test.

[3] = system: lethally irradiated mice; experiment: Radioprotective effect: life-span prolongation of lethally irradiated mice; type: in vivo, mouse (BDF1 female); details: 0.1 mg/kg i.v. days 0, 4, 8, 9 Gy X-ray, groups of 10
Procedure: Life-span-prolonging effects of the present compounds on lethally irradiated mice.
Experiment was performed with BDF1 female mice (6 weeks old) purchased from NIPPON SLC K.K., which were divided into groups consisting of 10 animals. Mice were irradiated generally with 9 Gy of X-ray with an X-ray generating apparatus, Hitachi, MBR-1520R (radiation day: day 0). Samples at a dose of 0.1 mg/kg were administered into tail vein on days 0, 4 and 8 in order to observe the mortality of the animals for 40 days.
In the table, two experiments are separated by the broken line.

[4] = system: B16 mouse melanoma cells; experiment: Tumor growth inhibition in mice subcutaneously inoculated with B16 mouse melanoma cells; type: in vivo, mouse (BDF1 female); details: 0.1 mg/kg i.v. days 1, 5, 9; maximum during 20 days
Procedure: ii) Anti-tumor effect of the compound according to the present invention on mice subcutaneously inoculated with B16 mouse melanoma cells.
Experiment was performed with BDF1 female mice (6 weeks) purchased from NIPPON SLC K.K., which were divided into groups consisting of 6 animals. […]. The subcutaneous tumor volumes [(length×width×height)/2] were measured on days 8, 12, 16 and 20 after implantation to determine the tumor growth inhibiting rate (TGIR) of each sample. TGIR was calculated from the following formula: […]
wherein C: tumor volume in the control group, and
T: tumor volume in the sample adminitered groups.
In this connection, Compounds 1-6 and 7-9 were tested in the same time, respectively.

[5] = system: mouse splenic lymphocyte; experiment: In vitro mouse splenic lymphocyte-proliferation-stimulating effect (3H-TdR uptake); type: cell-based, mouse (BDF1 female); details: 2 days, 2880 min
Procedure: i) In vitro mouse splenic lymphocyte growth promoting effects of the present compounds
Experiment was performed with BDF1 female mice (6 weeks old) purchased from NIPPON SLC K.K. Spleens were removed from mice, and spleen cells were brayed with slide glasses and hemolized with NH4 Cl. 2×10^6cells/ml of the spleen cells which had been hemolized were suspended in 10% FCS RPMI 1640. The cell suspension (100 μl/well) and a vehicle or sample (10 μl/well) which was prepared so as to have a final level shown in Table 3 were added into wells of a round-bottomed 96 well plate, and cultured under the condition of 5% CO2 at 37° C. for 2 days. 0.5 μCi/well of ^3 H-thymidine (^3 H-TdR) was added. After 6 hours, the cells were harvested, and the amount of ^3 H-TdR uptaken into nucleus was measured by a liquid scintillation counter. The ratio (%) of the uptake of ^3 H-TdR in the sample group to that in the vehicle group was calculated and used as the in vitro mouse splenic lymphocyte-proliferation-stimulating rate.

[6] = system: mixed lymphocyte culture reaction (spleen cells of C57BL/6 and BALB/C mice); experiment: Mixed lymphocyte culture reaction (MLR); type: cell-based, mouse (C57BL/6 stimulator, BALB/C responder); details: 42 hours, 2520 min
Procedure: ii) Mixed lymphocyte culture reaction (MLR) of the compounds of the present invention
Spleen cells were prepared from C57BL/6 mice and treated with 50 μg/ml of mitomycin C for 30 minutes. The treated cells were used as stimulator cells, and the spleen cells of BALB/C mice as responder cells. 2×10^6 cells/ml of the both spleen cells were suspended in 10% FCS RPMI1640 as a culture medium. The above-described cells (50 μl/well) and a sample (10 μl/well) were added into wells of a round-bottomed 96 well plate, and cultured under the condition of 5% CO2 at 37° C. for 42 hours. 0.5 μCi/well of ^3 H-thymidine (^3 H-TdR) was added. After 8 hours, the cells were harvested, and the amount of uptaken ^3 H-TdR was measured by a liquid scintillation counter to calculate the ratio (%) of the uptake of ^3 H-TdR in the sample group to that in the vehicle group as the MLR activating rate.

| SMILES | Uptake of 3H-TdR (% of control), bone marrow cells ([1]; 10^-1 μg/ml) | Uptake of 3H-TdR (% of control), bone marrow cells ([1]; 10^-2 μg/ml) | Survival days ave. ± s. d. [2] [days] | T/C (%) [2] [%] | Number of surviving mice ([3]; day 10) [mice] | Number of surviving mice ([3]; day 15, 0.1 mg/kg) [mice] | Number of surviving mice ([3]; day 20, 0.1 mg/kg) [mice] | Number of surviving mice ([3]; day 25, 0.1 mg/kg) [mice] | Number of surviving mice ([3]; day 30, 0.1 mg/kg) [mice] | Number of surviving mice ([3]; day 35, 0.1 mg/kg) [mice] | Number of surviving mice ([3]; day 40, 0.1 mg/kg) [mice] | Maximum tumor growth inhibiting rate, TGIR (%) [4] [%] | Uptake of 3H-TdR (% of control), splenic lymphocytes ([5]; 10^0 μg/ml) | Uptake of 3H-TdR (% of control), splenic lymphocytes ([5]; 10^-1 μg/ml) | Uptake of 3H-TdR (% of control), splenic lymphocytes ([5]; 10^-2 μg/ml) | Uptake of 3H-TdR (% of control), splenic lymphocytes ([5]; 10^-3 μg/ml) | MLR activating rate (%) ([6]; 1 × 10^0 μg/ml) | MLR activating rate (%) ([6]; 1 × 10^-1 μg/ml) |
| --- | --- | --- | --- | --- | --- | --- | --- | --- | --- | --- | --- | --- | --- | --- | --- | --- | --- | --- |
| CCCCCCCCCCCCCCCCCCCCCC[C@@H](O)C(=O)N[C@@H](CO[C@H]1O[C@H](CO)[C@H](O)[C@H](O[C@H]2O[C@H](CO)[C@H](O)[C@H](O)[C@H]2NC(C)=O)[C@H]1O[C@H]1O[C@H](CO)[C@@H](O)[C@H](O)[C@H]1O)[C@H](O)[C@H](O)CCCCCCCCCCCC(C)C [Compound 5, O-(N-acetyl-2-amino-2-deoxy-α-D-galactopyranosyl)-(1→3)-O-[α-D-glucopyranosyl-(1→2)]-O-α-D-galactopyranosyl-(1→1)-(2S,3S,4R)-2-amino-N-[(R)-2-hydroxytetracosanoyl]-16-methyl-1,3,4-heptadecanetriol] | 330 % of control | 283 % of control | 15.2 ± 1.1 | 119 | 10 | 8 | 7 | 7 | 7 | 7 | 7 | 86.8 | 889 % of control | 764 % of control | 612 % of control | 592 % of control | 189 | 176 |
| CCCCCCCCCCCCCCCCCCCCCC[C@@H](O)C(=O)N[C@@H](CO[C@H]1O[C@H](CO)[C@H](O)[C@H](O[C@H]2O[C@H](CO)[C@H](O)[C@H](O)[C@H]2NC(C)=O)[C@H]1O[C@H]1O[C@H](CO)[C@@H](O)[C@H](O)[C@H]1O)[C@H](O)[C@H](O)CCCCCCCCCCCC(C)C [Compound 3, O-(N-acetyl-2-amino-2-deoxy-α-D-galactopyranosyl)-(1→3)-O-[α-D-glucopyranosyl-(1→2)]-O-α-D-galactopyranosyl-(1→1)-(2S,3S,4R)-2-amino-N-[(R)-2-hydroxytetracosanoyl]-16-methyl-1,3,4-heptadecanetriol] | 314 % of control | 138 % of control | 15.0 ± 0 | 117 | 10 | 6 | 5 | 5 | 5 | 5 | 5 | 66.8 | 815 % of control | 704 % of control | 397 % of control | 258 % of control | 210 | 138 |
